Legend:
yeast fRMsr = molecular target: T1, yeast fRMsr (Saccharomyces cerevisiae, UniProt P36088); assay: Activity assay of purified recombinant yeast fRMsr towards free Met sulfoxides (HPLC, OPA derivatization); assay type: biochemical, S. cerevisiae; conditions: for Activity of recombinant yeast fRMsr protein towards the substrate: recombinant His-tagged yeast fRMsr; for Specific activity for each Met-O: yfRMsr (yeast free methionine R-sulfoxide reductase), ± standard deviations from 3 independent experiments
T1 construct: His-tag (C); made in house; host or cells: E. coli BL21 (DE3), pET21b
T1 sequence (P36088 1-180): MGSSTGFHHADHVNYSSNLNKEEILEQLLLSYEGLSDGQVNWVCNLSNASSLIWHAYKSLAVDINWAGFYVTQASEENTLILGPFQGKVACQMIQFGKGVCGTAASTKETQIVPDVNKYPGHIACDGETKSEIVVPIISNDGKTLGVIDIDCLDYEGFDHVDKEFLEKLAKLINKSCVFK
Text: Cloning and expression of yeast fRMsr—Characterization of S. cerevisiae fRMsr (YKL069W) is described in Le, D. T., et al. (2009) Functional analysis of free methionine-R-sulfoxide reductase from Saccharomyces cerevisiae. J Biol Chem., 284(7), 4354-4364. Briefly, a yeast fRMsr cDNA, which encodes a protein homologous to fRMsr from E. coli, was amplified from S. cerevisiae genomic DNA and subcloned into pET21b vector (Novagen) using primers 5′-AAACATATGATGGGCTCATCAACCGGGTTTC-3′ (sense; SEQ ID NO:1) and 5′-AAGCGGCCGCGACACATGATTTATTAATTAATTTAGCAAG-3′ (antisense; SEQ ID NO:2). After transformation into BL21 (DE3) E. coli, the subcloned sequence was verified by DNA sequencing. Cells with the plasmid in 500 mL LB medium containing 100 μg/mL ampicillin were grown until OD600 reached 0.6-0.8, followed by addition of IPTG to 0.3 mM. Protein expression was at 30° C. for 4 hours, followed by harvesting cells by centrifugation at 4,000 rpm for 5 minutes. Cells were washed with PBS and stored at −70° C. until use.
To purify the protein, a cell pellet was dissolved in resuspension buffer (Tris-HCl, pH 7.5, 15 mM imidazole, 300 mM NaCl), and PMSF was added to a final concentration of 0.5 mM. After sonication, the supernatant was collected by centrifugation at 8,000 rpm for 30 minutes. The supernatant was loaded onto a cobalt Talon resin (Clontech) pre-equilibrated with resuspension buffer. Following washing with the same buffer, the protein was eluted with elution buffer (Tris-HCl, pH 7.5, 300 mM imidazole, 300 mM NaCl). Fractions containing yeast fRMsr were pooled together and dialyzed overnight against PBS in a dialysis cassette (Pierce).
Activity assays of fRMsr—Reaction mixture (40 μL) included 50 mM DTT, 1 mM substrate (Met-RO or Met-SO), and purified enzyme or cell lysate prepared by treatment with CelLytic™M cell lysis reagent (Sigma). 20 μL of the reaction mixture was mixed with 2 μL of TCA and subjected to OPA derivatization as described above and then injected onto the column to measure endogenous Met level in the samples. An additional 20 μL from the same original reaction mixture were incubated at 37° C. for 30 minutes and then subjected to OPA derivatization by the same procedure using TCA. After derivatization of the sample (2-5 μL) by adding OPA solution to 100 μL as a final volume, 50 μL of the mixture were subjected to an HPLC separation as described above.

SK-Hep1 cells = assay: Growth and morphology of SK-Hep1 cells in Met-free DMEM supplemented with Met or Met sulfoxides (MTS proliferation assay, microscopy); assay type: cell-based, human; conditions: for Growth of SK-Hep1 cells: Met-free DMEM supplemented with 0.1 mM of the compound; for Morphology of SK-Hep1 cells: after 96 hours on medium with 0.1 mM of the compound
Experimental: Cell culture—SK-Hep1 (ATCC: HTB-52™) and fRMsr-transfected SK-Hep1 cells were cultured in DMEM or Met-free DMEM (GIBCO) media, supplemented with 0.1 mM Met, 0.1 mM Met-RO, 0.1 mM Met-SO, or 0.1 mM Met-RSO. […] Thus, 0.1 mM Met sulfoxides were used in the experiments described below. Cell culture experiments, with the exception of a proliferation assay, were carried out in 6-well plates, and cells were maintained at 37° C. in a 5% CO2 atmosphere. Proliferation Assay—Cell growth was quantified using colorimetric MTS assay (Promega). Cells in regular DMEM medium were plated in 96-well plates at 5×10^3 cells/well, washed with PBS, and specialized DMEM media were added that contained Met, Met-SO, Met-RO, or Met-RSO 24 hours after plating. To assay for cell proliferation, a tetrazolium compound [3-(4,5-dimethylthiazol-2-yl)-5-(3-carboxymethoxyphenyl)-2-(4-sulfophenyl)-2H-tetrazolium, inner salt; MTS] and an electron coupling reagent (phenazine methosulfate; PMS) were mixed according to the manufacturer's protocol and then 20 μL of the mixture were added to 100 μL of phenol red-excluded media that further replaced cell culture media. After 90 minutes of incubation at 37° C. in the atmosphere of 5% CO2, cell proliferation was measured at indicated time periods from 0 to 96 hours at 450 nm in a plate reader. Direct counting of viable cells using 0.2% trypan blue was done in 6-well plates. Microscopy—A Nikon TE-300 Widefield Microscope was used to prepare images of SK-Hep1 cells grown on different Met and Met sulfoxide media. Microscopy analyses were carried out in the University of Nebraska Microscopy Core Facility.

[1] = system: yeast fRMsr-transfected SK-Hep1 cells; assay: Growth and morphology of yeast fRMsr-expressing SK-Hep1 cells on Met sulfoxide media; assay type: cell-based, human; conditions: 0.1 mM
Experimental: Proliferation Assay-Cell growth was quantified using colorimetric MTS assay (Promega). Cells in regular DMEM medium were plated in 96-well plates at 5×10^3 cells/well, washed with PBS, and specialized DMEM media were added that contained Met, Met-SO, Met-RO, or Met-RSO 24 hours after plating. To assay for cell proliferation, a tetrazolium compound [3-(4,5-dimethylthiazol-2-yl)-5-(3-carboxymethoxyphenyl)-2-(4-sulfophenyl)-2H-tetrazolium, inner salt; MTS] and an electron coupling reagent (phenazine methosulfate; PMS) were mixed according to the manufacturer's protocol and then 20 μL of the mixture were added to 100 μL of phenol red-excluded media that further replaced cell culture media. After 90 minutes of incubation at 37° C. in the atmosphere of 5% CO2, cell proliferation was measured at indicated time periods from 0 to 96 hours at 450 nm in a plate reader. Direct counting of viable cells using 0.2% trypan blue was done in 6-well plates. Transfection of […] into SK-Hep1 cells-[…]-tag sequence was cloned at the C-terminus of […] sequence was inserted into a mammalian expression vector, pCI-neo (Promega), and the resulting construct was verified by DNA sequencing. […] To establish a stable cell line, cells were selected in the presence of 800 μg/mL G418 sulfate (Promega), and further maintained in the presence of 400 μg/mL G418 sulfate. […]

| Structure (SMILES) | Activity of recombinant yeast fRMsr protein towards the substrate (yeast fRMsr) | Specific activity for each Met-O (yeast fRMsr) | Growth of SK-Hep1 cells (SK-Hep1 cells) | Morphology of SK-Hep1 cells (SK-Hep1 cells) | Growth of fRMsr-transfected cells [1] |
| --- | --- | --- | --- | --- | --- |
| C[S@+]([O-])CC[C@H](N)C(=O)O [Met-SO, methionine-S-sulfoxide] | inactive | ND* (A signal corresponding to specific activity less than 5 pmol/min/mg is shown as ND (Not Detectable)) | could also proliferate | resembled those maintained in the presence of Met | essentially indistinguishable from that of cells grown in the presence of Met |
| C[S@@+]([O-])CC[C@H](N)C(=O)O [Met-RO, methionine-R-sulfoxide] | ≈ 33 nmol/min/mg protein | 30015 ± 2652 pmol/min/mg | did not support growth | long and narrow | essentially indistinguishable from that of cells grown in the presence of Met |
